The values below come from patent US3992446A, “Substituted aminochlorobenzylamino guanidine compounds” (American Cyanamid Company, priority 1975, dated 1976).

Each structure is given as a SMILES string. Counter-ions that a name gives are not always drawn. Like-named read-outs stand apart in the source and are kept apart here.

What all share (type): in vivo
Assay [1] deals with Eimeria tenella. Description: anticoccidial activity against Eimeria tenella in inoculated Peterson Cross Cockerels, medicated diet, survival. To be noted: 168 h; for responders at 15 µg/mL: 15 parts per million in diet; for responders at 20 µg/mL: 20 parts per million in diet; for responders at 120 µg/mL: 120 parts per million in diet. The text has this:
(§1) For example, these compounds have anticoccidial activity against Eimeria tenella as shown by the following test: The animals were Peterson Cross Cockerels, 7 days old and of approximately equal size and weight. These cockerels were divided into groups and the groups were placed in separate cages with wire floors. Medicated and control diets were then presented to the groups of birds 2 days before inoculation while they were still in uncontaminated quarters. During the entire period of the tests, the birds ate and drank ad libitum. Control groups were maintained on a standard unmedicated commercial type chicken diet. Test groups were maintained on the same standard diet in which a measured concentration of test compound had been incorporated homogeneously. The cockerels were inoculated once orally with sporulated oocysts of Eimeria tenella. The number of oocysts inoculated directly into the crops of all cockerels in the tests was sufficient to produce high mortality in the untreated controls. […] Seven days following inoculation the tests were terminated and the mortality rate was recorded for each group. […] The tests represent very severe laboratory challenges, and lower concentrations than those shown would be effective under practical field conditions.

For assay [2], the system named is E. acervulina. Description: anticoccidial activity against E. acervulina in chickens (survival, weight gain).
Excerpt: as §1
(§2) The compounds of the present invention have high activity against other coccidial species in chickens. […] Methods used were essentially identical with those previously cited with appropriate modifications. Weight gains were determined 7 days after single experimental inoculations with the designated species of coccidia.

Assay [3] deals with coccidia. As to the kind of experiment: anti-coccidial activity, comparison with prior art compounds of Lieber et al.
Assay [4] relates to Eimeria necatrix. As to the kind of experiment: anticoccidial activity against Eimeria necatrix in chickens (survival, weight gain). The conditions noted are these: for % Survival / Weight gain: necatrix; for Weight gain: 7 days after inoculation.
Excerpt: as §1, §2

For assay [5], the system named is E. brunetti. Description: anticoccidial activity against E. brunetti in chickens (survival, weight gain). To be noted: for % Survival / Weight gain: brunetti; for Weight gain: 7 days after inoculation.
Excerpt: as §1, §2

Assay [6] relates to E. maxima. Description: anticoccidial activity against E. maxima in chickens (survival, weight gain). The conditions noted are these: for % Survival / Weight gain: maxima; for Weight gain: 7 days after inoculation.
Excerpt: as §1, §2

Assay [7] concerns E. mivati. As to the kind of experiment: anticoccidial activity against E. mivati in chickens (survival, weight gain). To be noted: for % Survival / Weight gain: mivati; for Weight gain: 7 days after inoculation.
Excerpt: as §1, §2

Setting [8] is: 10 parts per million in diet, 7 days after inoculation, read-out: % Survival.
Setting [9] is: 30 parts per million in diet, 7 days after inoculation, read-out: % Survival.

For `N=C(NNCc1ccc(Cl)cc1)NNCc1ccc(Cl)cc1` [1,3-bis(4-chlorobenzylamino)guanidine], the responders at 10 µg/mL in assay [1] (setting [8]) was found to be 90%. Further, in assay [1] (7 days after inoculation), the responders at 15 µg/mL came to 90% and the responders at 20 µg/mL was 100%.
Consider `N=C(NN=Cc1ccc(Cl)cc1)NN=Cc1ccc(Cl)cc1.O=[N+]([O-])O` [1,3-Bis(4-chlorobenzylideneamino)guanidine nitrate], for which, in assay [1] (read-out: % Survival), the responders at 18 µg/mL was 77%, the responders at 36 µg/mL amounted to 96% and the responders at 54 µg/mL amounted to 100%. Besides, the “% Survival” value in assay [2] (acervulina, 45 ppm in diet) was 100%. The compound further gave a Weight gain in assay [2] (acervulina, 45 ppm in diet, 7 days after inoculation) of 99 % control. The “Activity (anti-coccidial)” value in assay [3] (dosage 18 parts per million) is reported as “active”.
Turning to `N=C(NN=Cc1ccc(Cl)c(Cl)c1)NN=Cc1ccc(Cl)c(Cl)c1` [1,3-Bis(3,4-dichlorobenzylideneamino)guanidine Nitrate], in assay [1] (read-out: % Survival), the responders at 60 µg/mL turned out to be 100%.
Regarding `N=C(NN=Cc1ccc(F)cc1)NN=Cc1ccc(F)cc1` [1,3-Bis(4-fluorobenzylideneamino)guanidine Nitrate], the responders at 93 µg/mL in assay [1] (read-out: % Survival) stood at 80%.
Compound `N=C(NN=Cc1ccc(Cl)cc1)NNCc1ccc(Cl)cc1` [1-(4-Chlorobenzylamino)-3-(4-chlorobenzylideneamino)guanidine] gave a responders at 15 µg/mL in assay [1] (7 days after inoculation) of 90%. The responders at 30 µg/mL in assay [1] (setting [9]) is 100%.
Take `N=C(NN=Cc1ccc(Cl)cc1)NN=Cc1ccc(Cl)cc1` [1,3-Bis(4-chlorobenzylideneamino)guanidine]: the “protection from mortality due to Eimeria necatrix” value in assay [4] (treated chickens) is “completely protected”. Also, the “protection from poor weight gains due to E. acervulina” value in assay [2] (treated chickens) was “completely protected”. For the same compound, the “protection from poor weight gains due to E. brunetti” value in assay [5] (treated chickens) is on record as “completely protected”. For the same compound, the “protection from poor weight gains due to E. maxima” value in assay [6] (treated chickens) is “completely protected”. Besides, the “protection from poor weight gains due to E. mivati” value in assay [7] (treated chickens) was “completely protected”.
In the case of `CC(=O)c1ccccc1` [14) acetophenone, reference compound], the “Activity (anti-coccidial)” value in assay [3] (dosage 250 parts per million) was “inactive”.
Consider `O=Cc1ccccc1O` [11) salicylaldehyde, reference compound], for which the “Activity (anti-coccidial)” value in assay [3] (dosage 125 parts per million) is “inactive”.
As to `N=C(NN=Cc1ccc(C(F)(F)F)cc1)NN=Cc1ccc(C(F)(F)F)cc1` [1,3-Bis(4-trifluoromethylbenzylideneamino)guanidine hydrochloride], the responders at 120 µg/mL in assay [1] (7 days after inoculation) was found to be 100%.
With `Cl.N=C(NN=Cc1ccc(I)cc1)NN=Cc1ccc(I)cc1` [1,3-Bis(4-iodobenzylideneamino)guanidine Hydrochloride], in assay [1] (setting [9]), the responders at 30 µg/mL turned out to be 55%. In assay [3] (dosage 30 parts per million), the “Activity (anti-coccidial)” value is reported as “active”.
As for `CN(N=Cc1ccc(Cl)cc1)C(=N)N(C)N=Cc1ccc(Cl)cc1` [1,3-Bis(4-chlorobenzylideneamino)-1,3-dimethylguanidine hydrobromide], in assay [1] (setting [9]), the responders at 30 µg/mL was 100%. The compound also returned a responders at 120 µg/mL in assay [1] (7 days after inoculation) of 100%.
For `Cl.N=C(NN=Cc1ccc(Cl)cc1)NN=Cc1ccc(Cl)cc1` [1,3-bis(4-chlorobenzylideneamino)-guanidine hydrochloride], the responders at 8.5 µg/mL in assay [1] (read-out: % Survival) came to 45%. In assay [1] (read-out: % Survival), the responders at 17 µg/mL is 75%. For the same compound, the responders at 33 µg/mL in assay [1] (read-out: % Survival) was 100%. Further, the “% Survival” value in assay [5] (15 ppm in diet), in assay [5] (30 ppm in diet), in assay [6] (15 ppm in diet), in assay [6] (30 ppm in diet), in assay [6] (45 ppm in diet) and in assay [7] (15 ppm in diet) was 100% each time. The “% Survival” value in assay [7] (30 ppm in diet) and in assay [7] (45 ppm in diet) was 100% each time. The Weight gain turned out to be 100 % control in assay [5] (15 ppm in diet); 95 % control in assay [5] (30 ppm in diet); 101 % control in assay [6] (15 ppm in diet); 95 % control in assay [6] (30 ppm in diet); 100 % control in assay [6] (45 ppm in diet); 86 % control in assay [7] (15 ppm in diet). In addition, the Weight gain in assay [7] (30 ppm in diet) worked out at 91 % control; in assay [7] (45 ppm in diet), 100 % control. Further, the “Activity (anti-coccidial)” value in assay [3] (dosage 8.5 parts per million) is reported as “active”.
Turning to `O=Cc1ccc2c(c1)OCO2` [9) piperonal, reference compound], the “Activity (anti-coccidial)” value in assay [3] (dosage 125 parts per million) is “inactive”.
On to `N=C(NN=Cc1ccc(OC(F)(F)F)cc1)NN=Cc1ccc(OC(F)(F)F)cc1` [1,3-bis(4-Trifluoromethoxybenzylideneamino)guanidine Hydrochloride], for which, in assay [1] (read-out: % Survival), the responders at 5 µg/mL is 80% and the responders at 10 µg/mL was 100%.
As to `O=Cc1ccccc1O` [12) salicylaldehyde, reference compound], the “Activity (anti-coccidial)” value in assay [3] (dosage 200 parts per million) is “inactive”.
Take `N=C(NN=Cc1ccc(Br)cc1)NN=Cc1ccc(Br)cc1.O=[N+]([O-])O` [1,3-Bis(4-bromobenzylideneamino)guanidine Nitrate]: in assay [1] (read-out: % Survival), the responders at 17 µg/mL turned out to be 80% and the responders at 35 µg/mL was 95%. In addition, the “Activity (anti-coccidial)” value in assay [3] (dosage 17 parts per million) is reported as “active”.
As to `CC(=O)N=C(NN=Cc1ccc(Cl)cc1)NN=Cc1ccc(Cl)cc1` [2-acetyl-1,3-bis(4-chlorobenzylideneamino)guanidine], the responders at 5 µg/mL in assay [1] (5 parts per million in diet, 7 days after inoculation, read-out: % Survival) is 67%. Moreover, the responders at 10 µg/mL in assay [1] (setting [8]) stood at 95%. The responders at 30 µg/mL in assay [1] (setting [9]) was determined as 100%.
As to `N#Cc1ccc(C=NNC(=N)NN=Cc2ccc(C#N)cc2)cc1` [1,3-Bis(4-cyanobenzylideneamino)guanidine Nitrate], in assay [1] (read-out: % Survival), the responders at 30 µg/mL was 80% and the responders at 60 µg/mL turned out to be 100%.
With `N=C(NN=Cc1ccc(Cl)cc1)NN=Cc1ccc(Cl)cc1` [1,3-bis(4-chlorobenzylideneamino)guanidine methosulfate], the responders at 20 µg/mL in assay [1] (7 days after inoculation) stood at 59%. This compound also came in with a responders at 40 µg/mL in assay [1] (40 parts per million in diet, 7 days after inoculation) of 90%. Moreover, in assay [1] (60 parts per million in diet, 7 days after inoculation, read-out: % Survival), the responders at 60 µg/mL amounted to 98%. Also, in assay [4] (15 ppm in diet), the “% Survival” value amounted to 100% and the Weight gain is on record as 80 % control. For the same compound, in assay [4] (30 ppm in diet), the “% Survival” value was determined as 100% and the Weight gain is reported as 103 % control. The “Activity (anti-coccidial)” value in assay [3] (dosage 20 parts per million) is “active”.
